# Measurements as given in patent US10167262B2, “Herbicidal substituted 3-arylpyrazoles” (FMC CORPORATION, priority 2014, dated 2019).
# How the values were obtained:
# Experiment in all cases: Test E pre-/postemergence greenhouse test, plant response rating 0-100
# Assay type in all cases: in vivo
# [1] = system: dayflower (Virginia (VA) dayflower, Commelina virginica); conditions: scale 0 to 100
# Source text: (§1) Seeds of plant species selected from corn (Zea mays), soybean (Glycine max), velvetleaf (Abutilon theophrasti), lambsquarters (Chenopodium album), wild poinsettia (Euphorbia heterophylla), palmer pigweed (Amaranthus palmeri), waterhemp (common waterhemp, Amaranthus rudis), surinam grass (Brachiaria decumbens), large (Lg) crabgrass (Digitaria sanguinalis), Brazilian crabgrass (Digitaria horizontalis), fall panicum (Panicum dichotomiflorum), giant foxtail (Setaria faberii), green foxtail (Setaria viridis), goosegrass (Eleusine indica), johnsongrass (Sorghum halepense), ragweed (common ragweed, Ambrosia elatior), barnyardgrass (Echinochloa crus-galli), sandbur (southern sandbur, Cenchrus echinatus), arrowleaf sida (Sida rhombifolia), Italian ryegrass (Lolium multiflorum), dayflower (Virginia (VA) dayflower, Commelina virginica), field bindweed (Convolvulus arvensis), morningglory (Ipomoea coccinea), nightshade (eastern black nightshade, Solanum ptycanthum), kochia (Kochia scoparia), yellow nutsedge (Cyperus esculentus), smartweed (ladysthumb smartweed, Polygonum persicaria), cocklebur (common cocklebur, Xanthium strumarium), and hairy beggarticks (Bidens pilosa), were planted into a silt loam soil and treated preemergence with test chemicals formulated in a non-phytotoxic solvent mixture which included a surfactant.
# (§2) At the same time, plants from these crop and weed species and also waterhemp_RES1, (ALS & Triazine resistant common waterhemp, Amaranthus rudis), and waterhemp_RES2, (ALS & HPPD resistant common waterhemp, Amaranthus rudis) were planted in pots containing Redi-Earth® planting medium (Scotts Company, 14111 Scottslawn Road, Marysville, Ohio 43041) comprising spaghnum peat moss, vermiculite, wetting agent and starter nutrients were treated with postemergence applications of test chemicals formulated in the same manner. Plants ranged in height from 2 to 18 cm for postemergence treatments (1- to 4-leaf stage).
# (§3) Treated plants and controls were maintained in a greenhouse for 14 to 21 days, after which time all species were compared to controls and visually evaluated. Plant response ratings, summarized in Table E, are based on a scale of 0 to 100 where 0 is no effect and 100 is complete control. A dash (-) response means no test result.
# [2] = system: wild poinsettia (Euphorbia heterophylla); conditions: scale 0 to 100; for Poinsettia, Wild plant response rating: Preemergence
# Source text: as §1, §2, §3
# [3] = system: hairy beggarticks (Bidens pilosa); conditions: Preemergence, scale 0 to 100
# Source text: as §1, §2, §3
# [4] = system: arrowleaf sida (Sida rhombifolia)
# Source text: as §1, §2, §3
# [5] = system: sandbur (southern sandbur, Cenchrus echinatus); conditions: Postemergence, scale 0 to 100
# Source text: as §1, §2, §3
# [6] = system: Brazilian crabgrass (Digitaria horizontalis); conditions: Postemergence, scale 0 to 100
# Source text: as §1, §2, §3
# [7] = system: palmer pigweed (Amaranthus palmeri); conditions: scale 0 to 100; for Pigweed, Palmer plant response rating: Preemergence
# Source text: as §1, §2, §3
# [8] = system: waterhemp (common waterhemp, Amaranthus rudis); conditions: scale 0 to 100; for Waterhemp plant response rating: Preemergence
# Source text: as §1, §2, §3
# [9] = system: fall panicum (Panicum dichotomiflorum); conditions: Postemergence, scale 0 to 100
# Source text: as §1, §2, §3
# [10] = system: barnyardgrass (Echinochloa crus-galli); conditions: Postemergence, scale 0 to 100
# Source text: as §1, §2, §3
smiles,measurement,setting,value
"Cn1cc(C(=O)c2ccccc2)c(-c2cc(Cl)cc(Cl)c2)n1 [Compound 54, [3-(3,5-dichlorophenyl)-1-methyl-1H-pyrazol-4-yl]phenylmethanone]",pest or weed control at 16 g/ha,"[1]; Commelina virginica, post-emergence, Postemergence, 16 g ai/ha",0%
same,pest or weed control at 31 g/ha,"[1]; Commelina virginica, post-emergence, Postemergence, 31 g ai/ha",0%
same,pest or weed control at 62 g/ha,"[1]; Commelina virginica, post-emergence, Postemergence, 62 g ai/ha",0%
same,pest or weed control at 125 g/ha,"[1]; Commelina virginica, post-emergence, Postemergence, 125 g ai/ha",0%
same,pest or weed control at 250 g/ha,"[1]; Commelina virginica, post-emergence, Postemergence, 250 g ai/ha",0%
same,pest or weed control at 1000 g/ha,"[1]; Commelina virginica, pre-emergence, Preemergence, 1000 g ai/ha",0%
same,"Dayflower, VA plant response rating","[1]; Preemergence, 125 g ai/ha",0
same,"Dayflower, VA plant response rating","[1]; Preemergence, 250 g ai/ha",0
same,pest or weed control at 31 g/ha,"[2]; Euphorbia heterophylla, post-emergence, Postemergence, 31 g ai/ha, read-out: Plant response rating, Poinsettia, Wild",0%
same,pest or weed control at 62 g/ha,"[2]; Euphorbia heterophylla, post-emergence, Postemergence, 62 g ai/ha, read-out: Plant response rating, Poinsettia, Wild",0%
same,pest or weed control at 125 g/ha,"[2]; Euphorbia heterophylla, post-emergence, Postemergence, 125 g ai/ha, read-out: Plant response rating, Poinsettia, Wild",0%
same,pest or weed control at 250 g/ha,"[2]; Euphorbia heterophylla, post-emergence, Postemergence, 250 g ai/ha, read-out: Plant response rating, Poinsettia, Wild",0%
same,"Poinsettia, Wild plant response rating",[2]; 125 g ai/ha,80
same,"Poinsettia, Wild plant response rating",[2]; 250 g ai/ha,23
same,pest or weed control at 1000 g/ha,"[3]; Bidens pilosa, pre-emergence, 1000 g ai/ha",90%
same,Beggarticks plant response rating,[3]; 125 g ai/ha,0
same,Beggarticks plant response rating,[3]; 250 g ai/ha,23
same,Arrowleaf Sida plant response rating,"[4]; Preemergence, 125 g ai/ha, scale 0 to 100",43
same,Arrowleaf Sida plant response rating,"[4]; Preemergence, 250 g ai/ha, scale 0 to 100",80
same,pest or weed control at 16 g/ha,"[4]; Sida rhombifolia, post-emergence, Postemergence, 16 g ai/ha, scale 0 to 100",30%
same,pest or weed control at 31 g/ha,"[4]; Sida rhombifolia, post-emergence, Postemergence, 31 g ai/ha, scale 0 to 100",50%
same,pest or weed control at 62 g/ha,"[4]; Sida rhombifolia, post-emergence, Postemergence, 62 g ai/ha, scale 0 to 100",50%
same,pest or weed control at 125 g/ha,"[4]; Sida rhombifolia, post-emergence, Postemergence, 125 g ai/ha, scale 0 to 100",65%
same,pest or weed control at 250 g/ha,"[4]; Sida rhombifolia, post-emergence, Postemergence, 250 g ai/ha, scale 0 to 100",75%
same,pest or weed control at 1000 g/ha,"[4]; Sida rhombifolia, pre-emergence, Preemergence, 1000 g ai/ha, scale 0 to 100",100%
same,pest or weed control at 31 g/ha,"[5]; Cenchrus echinatus, post-emergence, 31 g ai/ha",0%
same,pest or weed control at 62 g/ha,"[5]; Cenchrus echinatus, post-emergence, 62 g ai/ha",0%
same,pest or weed control at 125 g/ha,"[5]; Cenchrus echinatus, post-emergence, 125 g ai/ha",0%
same,pest or weed control at 250 g/ha,"[5]; Cenchrus echinatus, post-emergence, 250 g ai/ha",0%
same,pest or weed control at 16 g/ha,"[6]; Digitaria horizontalis, post-emergence, 16 g ai/ha, read-out: Plant response rating, Crabgrass, Brazil",0%
same,pest or weed control at 31 g/ha,"[6]; Digitaria horizontalis, post-emergence, 31 g ai/ha, read-out: Plant response rating, Crabgrass, Brazil",0%
same,pest or weed control at 62 g/ha,"[6]; Digitaria horizontalis, post-emergence, 62 g ai/ha, read-out: Plant response rating, Crabgrass, Brazil",0%
same,pest or weed control at 125 g/ha,"[6]; Digitaria horizontalis, post-emergence, 125 g ai/ha, read-out: Plant response rating, Crabgrass, Brazil",0%
same,pest or weed control at 250 g/ha,"[6]; Digitaria horizontalis, post-emergence, 250 g ai/ha, read-out: Plant response rating, Crabgrass, Brazil",0%
same,pest or weed control at 31 g/ha,"[7]; Amaranthus palmeri, post-emergence, Postemergence, 31 g ai/ha",40%
same,pest or weed control at 62 g/ha,"[7]; Amaranthus palmeri, post-emergence, Postemergence, 62 g ai/ha",60%
same,pest or weed control at 125 g/ha,"[7]; Amaranthus palmeri, post-emergence, Postemergence, 125 g ai/ha",75%
same,pest or weed control at 250 g/ha,"[7]; Amaranthus palmeri, post-emergence, Postemergence, 250 g ai/ha",95%
same,"Pigweed, Palmer plant response rating",[7]; 125 g ai/ha,86
same,"Pigweed, Palmer plant response rating",[7]; 250 g ai/ha,95
same,pest or weed control at 62 g/ha,"[8]; Amaranthus tuberculatus, post-emergence, Postemergence, 62 g ai/ha",60%
same,pest or weed control at 125 g/ha,"[8]; Amaranthus tuberculatus, post-emergence, Postemergence, 125 g ai/ha",70%
same,pest or weed control at 250 g/ha,"[8]; Amaranthus tuberculatus, post-emergence, Postemergence, 250 g ai/ha",95%
same,Waterhemp plant response rating,[8]; 125 g ai/ha,96
same,Waterhemp plant response rating,[8]; 250 g ai/ha,99
same,pest or weed control at 31 g/ha,"[9]; Panicum dichotomiflorum, post-emergence, 31 g ai/ha",0%
same,pest or weed control at 62 g/ha,"[9]; Panicum dichotomiflorum, post-emergence, 62 g ai/ha",0%
same,pest or weed control at 125 g/ha,"[9]; Panicum dichotomiflorum, post-emergence, 125 g ai/ha",0%
same,pest or weed control at 250 g/ha,"[9]; Panicum dichotomiflorum, post-emergence, 250 g ai/ha",0%
same,pest or weed control at 16 g/ha,"[10]; Echinochloa crus-galli, post-emergence, 16 g ai/ha",0%
same,pest or weed control at 31 g/ha,"[10]; Echinochloa crus-galli, post-emergence, 31 g ai/ha",0%
same,pest or weed control at 62 g/ha,"[10]; Echinochloa crus-galli, post-emergence, 62 g ai/ha",0%
same,pest or weed control at 125 g/ha,"[10]; Echinochloa crus-galli, post-emergence, 125 g ai/ha",0%
same,pest or weed control at 250 g/ha,"[10]; Echinochloa crus-galli, post-emergence, 250 g ai/ha",0%
ON=C(c1ccccc1)c1c[nH]nc1-c1cc(Cl)cc(Cl)c1 [Compound 50],"Plant response rating, Dayflower, VA","[1]; Postemergence, 31 g ai/ha",0
same,"Plant response rating, Dayflower, VA","[1]; Postemergence, 62 g ai/ha",0
same,"Plant response rating, Dayflower, VA","[1]; Postemergence, 125 g ai/ha",0
same,"Plant response rating, Dayflower, VA","[1]; Postemergence, 250 g ai/ha",0
same,"Plant response rating, Dayflower, VA","[1]; Postemergence, 500 g ai/ha",0
same,"Plant response rating, Poinsettia, Wild","[2]; Postemergence, 31 g ai/ha",0
same,"Plant response rating, Poinsettia, Wild","[2]; Postemergence, 62 g ai/ha",0
same,"Plant response rating, Poinsettia, Wild","[2]; Postemergence, 125 g ai/ha",0
same,"Plant response rating, Poinsettia, Wild","[2]; Postemergence, 250 g ai/ha",20
same,"Plant response rating, Poinsettia, Wild","[2]; Postemergence, 500 g ai/ha",30
same,"Plant response rating, Arrowleaf Sida","[4]; Postemergence, 31 g ai/ha, scale 0 to 100",50
same,"Plant response rating, Arrowleaf Sida","[4]; Postemergence, 62 g ai/ha, scale 0 to 100",50
same,"Plant response rating, Arrowleaf Sida","[4]; Postemergence, 125 g ai/ha, scale 0 to 100",60
same,"Plant response rating, Arrowleaf Sida","[4]; Postemergence, 250 g ai/ha, scale 0 to 100",70
same,"Plant response rating, Arrowleaf Sida","[4]; Postemergence, 500 g ai/ha, scale 0 to 100 (0 no effect, 100 complete control)",80
same,"Plant response rating, Sandbur",[5]; 31 g ai/ha,0
same,"Plant response rating, Sandbur",[5]; 62 g ai/ha,0
same,"Plant response rating, Sandbur",[5]; 125 g ai/ha,0
same,"Plant response rating, Sandbur",[5]; 250 g ai/ha,0
same,"Plant response rating, Sandbur",[5]; 500 g ai/ha,0
same,"Plant response rating, Crabgrass, Brazil",[6]; 31 g ai/ha,0
same,"Plant response rating, Crabgrass, Brazil",[6]; 62 g ai/ha,0
same,"Plant response rating, Crabgrass, Brazil",[6]; 125 g ai/ha,0
same,"Plant response rating, Crabgrass, Brazil",[6]; 250 g ai/ha,0
same,"Plant response rating, Crabgrass, Brazil",[6]; 500 g ai/ha,0
same,"Plant response rating, Pigweed, Palmer","[7]; Postemergence, 31 g ai/ha",65
same,"Plant response rating, Pigweed, Palmer","[7]; Postemergence, 62 g ai/ha",75
same,"Plant response rating, Pigweed, Palmer","[7]; Postemergence, 125 g ai/ha",80
same,"Plant response rating, Pigweed, Palmer","[7]; Postemergence, 250 g ai/ha",98
same,"Plant response rating, Pigweed, Palmer","[7]; Postemergence, 500 g ai/ha",98
same,"Plant response rating, Waterhemp","[8]; Postemergence, 31 g ai/ha",80
same,"Plant response rating, Waterhemp","[8]; Postemergence, 125 g ai/ha",90
same,"Plant response rating, Waterhemp","[8]; Postemergence, 250 g ai/ha",100
same,"Plant response rating, Waterhemp","[8]; Postemergence, 500 g ai/ha",100
same,"Plant response rating, Panicum, Fall",[9]; 31 g ai/ha,0
same,"Plant response rating, Panicum, Fall",[9]; 62 g ai/ha,0
same,"Plant response rating, Panicum, Fall",[9]; 125 g ai/ha,0
same,"Plant response rating, Panicum, Fall",[9]; 250 g ai/ha,0
same,"Plant response rating, Panicum, Fall",[9]; 500 g ai/ha,0
same,"Plant response rating, Barnyardgrass",[10]; 31 g ai/ha,0
same,"Plant response rating, Barnyardgrass",[10]; 62 g ai/ha,0
same,"Plant response rating, Barnyardgrass",[10]; 125 g ai/ha,0
same,"Plant response rating, Barnyardgrass",[10]; 250 g ai/ha,0
same,"Plant response rating, Barnyardgrass",[10]; 500 g ai/ha,10
